Assay results reported in ChEMBL document CHEMBL1201862, “PubChem BioAssay data set” (2004).
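Dose response: 5 concentrations. Exposure: 48 h. Format: 96-well plates. Endpoint: linear interpolation; highest concentration if not reached. The concentration for 50% growth inhibition is given as GI50.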 Active and inactive are the calls of the source. No stated cut-off is given here; in the data, active = GI50 up to about 1.1 µM and inactive = higher.

Experiments:
Experiment in all cases: inhibition of tumour cell growth, NCI panel, 48 h
[1] = system: LXFL 529
[2] = system: HCC 2998
[3] = system: OVCAR-8
[4] = system: SF-295
[5] = system: SNB-19
[6] = system: SNB-78
[7] = system: HCT-116
[8] = system: SN12C
[9] = system: M14
[10] = system: U-251
[11] = system: CAKI-1
[12] = system: LOX IMVI
[13] = system: SR
[14] = system: SW-620
[15] = system: OVCAR-3
[16] = system: RPMI-8226
[17] = system: OVCAR-4
[18] = system: RXF 393

Measured: GI50

CN(C(=O)C12C3C4C1C1C4(C(=O)C45C6C7C4C4C5C6C74C)C3C12C)C(C)(C)C (configuration not stated)
inactive: [1] 37.8 µM | [2] 91 µM | [3] > 100 µM | [4] > 100 µM | [5] 69.5 µM | [6] 78.3 µM | [7] 52.7 µM | [8] > 100 µM | [9] > 100 µM | [10] 79.3 µM | [11] > 100 µM | [12] 48.1 µM | [13] 29.2 µM | [14] > 100 µM

OCC1OC(NO)C(O)C(O)C1O (configuration not stated)
inactive: [1] > 100 µM | [2] > 100 µM | [3] > 100 µM | [4] > 100 µM | [5] > 100 µM | [6] > 100 µM | [7] > 100 µM | [8] > 100 µM | [15] > 100 µM | [9] > 100 µM | [10] > 100 µM | [16] > 100 µM | [17] > 100 µM | [18] > 100 µM | [11] > 100 µM | [12] > 100 µM | [13] > 100 µM | [14] > 100 µM

CC(C)(CN1CCCCC1)C(=O)/C=C/c1ccc(Cl)c(Cl)c1
inactive: [1] 1.46 µM | [2] 1.74 µM | [3] > 100 µM | [4] 2.45 µM | [5] 3.15 µM | [6] 1.51 µM | [7] 1.65 µM | [8] 1.56 µM | [15] 1.59 µM | [9] 1.7 µM | [10] 1.37 µM | [16] 2.52 µM | [17] 1.51 µM | [18] 1.17 µM | [12] 1.37 µM | [13] 1.49 µM | [14] 1.37 µM

CC(C)(C)c1cc(C(=O)O)c(C(c2ccccc2)c2ccccc2C(=O)O)c(C(=O)O)c1 (configuration not stated)
inactive: [1] > 100 µM | [3] > 100 µM | [4] > 100 µM | [5] > 100 µM | [6] > 100 µM | [7] > 100 µM | [8] 21.9 µM | [15] > 100 µM | [9] > 100 µM | [10] 11.3 µM | [17] 19.9 µM | [18] > 100 µM | [11] > 100 µM | [12] > 100 µM | [13] > 100 µM | [14] > 100 µM

CCCCCCCCCCCCCP(=O)(OC)OC
inactive: [1] 19.1 µM | [2] 21.5 µM | [3] 17 µM | [4] 21.5 µM | [5] 20.8 µM | [6] 17.5 µM | [7] 19.6 µM | [8] 20.2 µM | [15] 20.2 µM | [9] 19.9 µM | [10] 18.5 µM | [16] 24.3 µM | [17] 19.8 µM | [18] 31.8 µM | [11] 18 µM | [12] 19.3 µM | [13] 19 µM | [14] 17.7 µM

CC1(C)O[C@@H](CC/C=C/CO)[C@H](CC/C=C/CO)O1
inactive: [1] > 100 µM | [2] > 100 µM | [3] > 100 µM | [4] > 100 µM | [5] > 100 µM | [6] > 100 µM | [7] > 100 µM | [8] > 100 µM | [15] > 100 µM | [9] > 100 µM | [10] > 100 µM | [16] > 100 µM | [17] > 100 µM | [11] > 100 µM | [12] > 100 µM | [13] 74.6 µM | [14] > 100 µM

CC(C)NCCNC(=O)c1ccccc1Nc1c(Cl)cccc1Cl
inactive: [1] 16.9 µM | [2] 2.84 µM | [3] 16.6 µM | [4] 15.2 µM | [5] 15.3 µM | [6] 14.6 µM | [7] 11.3 µM | [8] 13.2 µM | [15] 12.6 µM | [9] 11.5 µM | [10] 4.65 µM | [16] 3.81 µM | [17] 14.4 µM | [18] 5.08 µM | [12] 7.24 µM | [13] 9.06 µM | [14] 15.5 µM

O=C(O)C(C(=O)C(=O)C(C(=O)O)c1ccc(Cl)cc1)c1ccc(Cl)cc1 (configuration not stated)
inactive: [1] 2.52 µM | [2] 4.02 µM | [3] 2.25 µM | [4] 8.65 µM | [5] 3.68 µM | [6] 3.27 µM | [7] 3.1 µM | [8] 2.94 µM | [15] 2.9 µM | [9] 4.45 µM | [10] 3.22 µM | [16] 2.13 µM | [17] 1.89 µM | [18] 3.92 µM | [11] 4.13 µM | [12] 2.56 µM | [13] 1.91 µM | [14] 3.98 µM

C[Si](C)(C)CN1C(=O)c2ccccc2C1(O)c1ccccc1 (configuration not stated)
inactive: [1] 93.1 µM | [2] > 100 µM | [3] > 100 µM | [4] 64.4 µM | [5] > 100 µM | [6] > 83.9 µM | [7] 48 µM | [8] > 89.3 µM | [15] > 86.3 µM | [9] > 100 µM | [10] > 100 µM | [17] 70.6 µM | [18] 75.2 µM | [11] 46.1 µM | [12] 49.4 µM | [13] 83.6 µM | [14] > 100 µM

CC(=O)C=C1Nc2ccccc2N1
inactive: [1] > 100 µM | [2] > 100 µM | [3] > 100 µM | [4] > 100 µM | [5] > 100 µM | [6] > 100 µM | [7] > 100 µM | [8] > 100 µM | [15] > 100 µM | [9] > 100 µM | [10] > 100 µM | [16] > 100 µM | [17] > 100 µM | [18] > 100 µM | [11] > 100 µM | [12] > 100 µM | [13] > 100 µM | [14] > 100 µM

CC(=O)c1ccc(NC(=O)COC(=O)c2cccc3c(=O)c4ccccc4[nH]c23)cc1
inactive: [1] 21.9 µM | [2] > 100 µM | [3] 9.2 µM | [4] 15.8 µM | [5] 22.5 µM | [6] 31.4 µM | [7] 12.2 µM | [8] 16.1 µM | [15] 27.2 µM | [9] 31.4 µM | [10] 15.5 µM | [17] 6.79 µM | [18] 18 µM | [11] > 100 µM | [12] 13.4 µM | [13] > 100 µM | [14] 52.8 µM

COC(=O)C(=O)C1(CCC(C)=O)c2ccccc2-c2c(C)ccc(C)c21 (configuration not stated)
inactive: [1] 37.8 µM | [2] 87.5 µM | [3] 34.4 µM | [4] 81.7 µM | [5] > 100 µM | [6] 19 µM | [7] 35.7 µM | [8] 69.2 µM | [15] 32 µM | [9] 46.8 µM | [10] 41.8 µM | [16] 26.2 µM | [17] 68.9 µM | [18] 32.1 µM | [11] 31.4 µM | [12] 36.8 µM | [13] 19.2 µM | [14] 48.4 µM

CC12CC[C@H](O)C(C)(C)[C@H]1CC[C@](C)(O)C2COc1ccc2ccc(=O)oc2c1 (some centres not stated)
inactive: [1] > 100 µM | [2] > 100 µM | [3] > 100 µM | [4] > 100 µM | [5] > 100 µM | [6] 48.4 µM | [7] 50.9 µM | [8] > 100 µM | [15] > 100 µM | [9] > 100 µM | [10] > 100 µM | [16] 99.1 µM | [17] > 100 µM | [18] > 100 µM | [12] > 100 µM | [13] > 100 µM | [14] > 100 µM
